The values that follow come from ChEMBL document CHEMBL1268824, “Synthesis and SAR studies of 1,4-benzoxazine MenB inhibitors: novel antibacterial agents against Mycobacterium tuberculosis” (Bioorg Med Chem Lett, 2010).

Converted amounts (≈) assume the structure as drawn. The source made the active and inactive calls. The rule behind the calls is not given here. Where only a bound is given, the exact number is not on record here.

Assay [1] has as its system Mycobacterium tuberculosis. Briefly: Antibacterial activity against Mycobacterium tuberculosis H37Rv after 5 to 7 days by alamar blue assay. Type of assay: functional. (In general: Resazurin is reduced to fluorescent resorufin, in cell work by metabolically active cells.)
The target in assay [2] is T1, 1,4-dihydroxy-2-naphthoyl-CoA synthase (Mycobacterium tuberculosis) (UniProt P9WNP5).
T1 sequence (whole entry): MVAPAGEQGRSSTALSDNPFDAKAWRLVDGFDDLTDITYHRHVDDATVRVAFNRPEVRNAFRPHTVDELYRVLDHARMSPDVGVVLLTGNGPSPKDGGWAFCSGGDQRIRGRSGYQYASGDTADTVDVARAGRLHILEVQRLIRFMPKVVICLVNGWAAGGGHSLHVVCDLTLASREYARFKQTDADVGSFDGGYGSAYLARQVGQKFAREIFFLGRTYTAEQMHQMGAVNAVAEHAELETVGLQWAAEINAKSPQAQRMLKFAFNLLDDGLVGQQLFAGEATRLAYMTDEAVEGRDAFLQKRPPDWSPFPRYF
Briefly: Inhibition of Mycobacterium tuberculosis MenB expressed in Escherichia coli BL21 (DE3) up to 100 uM by double-reciprocal plot analysis.

In assay [3] the test system is Escherichia coli. The assay can be described thus: Antibacterial activity against Escherichia coli M17 assessed as bacterial growth inhibition. It is filed as functional, organism-based.
The test system of the next assay is Staphylococcus aureus. The assay can be described thus: Antibacterial activity against Staphylococcus aureus P209 assessed as bacterial growth inhibition. Type of assay: functional, organism-based.
Assay [4] concerns the target T2, 1,4-dihydroxy-2-naphthoyl-CoA synthase (Mycobacterium tuberculosis, UniProt P9WNP5).
T2 sequence (P9WNP5 whole entry): T1 sequence (whole entry)
Briefly: Inhibition of Mycobacterium tuberculosis MenB expressed in Escherichia coli BL21 (DE3) by double-reciprocal plot analysis.

For a further assay, the system named is Mycobacterium avium. The assay can be described thus: Antibacterial activity against Mycobacterium avium. Type of assay: functional.
The target of assay [5] is T1, 1,4-dihydroxy-2-naphthoyl-CoA synthase (Mycobacterium tuberculosis). Briefly: Inhibition of Mycobacterium tuberculosis MenB expressed in Escherichia coli BL21 (DE3) at 125 ug/ml by double-reciprocal plot analysis.
Assay [6] relates to Escherichia coli. Briefly: Inhibition of Escherichia coli MenE expressed in Escherichia coli BL21 (DE3) at 50 uM by double-reciprocal plot analysis.
Assay [7] addresses T2, 1,4-dihydroxy-2-naphthoyl-CoA synthase. The assay can be described thus: Non-competitive inhibition of Mycobacterium tuberculosis MenB expressed in Escherichia coli BL21 (DE3).
Assay [8] shares this target. Briefly: Non-competitive inhibition of Mycobacterium tuberculosis MenB expressed in Escherichia coli BL21 (DE3) assessed as inhibition of enzyme-substrate complex formation.

In assay [1], `O=C1Oc2cc(F)ccc2N/C1=C\C(=O)c1ccccc1Cl` returned a minimum inhibitory concentration (MIC) of 1.56 µg/mL (≈ 4.91 µM). Further, the inhibition result in assay [2] is “inactive”. Besides, the “growth inhibition (GI)” value in the assay on Escherichia coli [3] and in the assay on Staphylococcus aureus was “Active” each time.
Consider `COC(=O)/C=C1\Nc2c(C)cccc2OC1=O`, for which the concentration for half-maximal inhibition (IC50) in assay [4] came to 24.1 µM. This molecule came in with an MIC in assay [1] of 25 µg/mL (≈ 107 µM).
`COC(=O)/C=C1\Nc2ccccc2SC1=O` came in with a half-maximal inhibitory concentration (IC50) in assay [4] greater than 140 µM. The molecule further came in with an MIC in [1] greater than 100 µg/mL. In addition, the Activity with Mycobacterium avium was greater than 64 µg/mL.
With `CCS(=O)(=O)c1ccc2c(c1)N/C(=C\C(=O)C(C)(C)C)C(=O)O2`, the inhibition in assay [5] was 60.3%. Also, the inhibition entry in the assay with Escherichia coli [6] was “inactive”.
The molecule `O=C1Oc2ccccc2N/C1=C\C(=O)c1ccccc1Cl` displayed a minimum inhibitory concentration (MIC) in [1] of 3.13 µg/mL (≈ 10.4 µM). Besides, the inhibition result in assay [2] is “inactive”. The “growth inhibition (GI)” value with Escherichia coli [3] and in the assay with Staphylococcus aureus was “Active” in each case.
In [4], `COC(=O)/C=C1\Nc2ccc(C)cc2OC1=O` yielded a half-inhibitory concentration (IC50) of 18.2 µM. The molecule further displayed an MIC in [1] of 100 µg/mL (≈ 429 µM).
In turn, `Cc1ccc2c(c1)OC(=O)/C(=C/C(=O)c1ccccc1Cl)N2` had a minimum inhibitory concentration (MIC) in assay [1] greater than 100 µg/mL. Also, in assay [2], the inhibition entry is “inactive”. Besides, the “growth inhibition (GI)” value in the assay on Escherichia coli [3] and in the assay with Staphylococcus aureus was “Active” in each case.
In assay [5], `CC(C)(C)/C(O)=C/c1nc2ccccc2oc1=O` yielded an inhibition of 68.4%. The inhibition result in the assay on Escherichia coli [6] is “inactive”.
`COC(=O)/C=C1\Nc2cc(F)ccc2OC1=O` gave an IC50 in [4] of 27 µM. The results for the Ki in [7] and in assay [8] were 11.5 µM and 10.1 µM, respectively. The molecule further showed an MIC in assay [1] of 0.63 µg/mL (≈ 2.66 µM).
With `Cc1ccc2c(c1)N/C(=C\C(=O)c1ccccc1Cl)C(=O)O2`, in [1], the MIC is 100 µg/mL (≈ 319 µM). Besides, the inhibition entry in assay [2] was “inactive”. Moreover, the “growth inhibition (GI)” value with Escherichia coli [3] and in the assay with Staphylococcus aureus was “Active” in each case.
For the molecule `COC(=O)/C=C1\Nc2cc(C)ccc2OC1=O`, it took 23.1 µM to reach half-maximal inhibition in [4] (IC50). In assay [1], this molecule displayed an MIC greater than 100 µg/mL.
The corresponding values for `CCS(=O)(=O)c1ccc2c(c1)N/C(=C\C(=O)OC)C(=O)O2` are 17.9 µM and greater than 100 µg/mL.
The molecule `O=C1Oc2cc(Cl)ccc2N/C1=C\C(=O)c1ccccc1Cl` came in with a minimal inhibitory concentration (MIC) in [1] of 3.13 µg/mL (≈ 9.37 µM). The inhibition entry in assay [2] was “inactive”. Besides, the “growth inhibition (GI)” value with Escherichia coli [3] and in the assay with Staphylococcus aureus was “Active” each time.
On to `COC(=O)/C=C1\Nc2cc([N+](=O)[O-])ccc2OC1=O`, for which the IC50 in assay [4] is 28.2 µM. This molecule yielded an MIC in assay [1] of 50 µg/mL (≈ 189 µM).
In turn, `CC(C)CC(=O)/C=C1\Nc2cc(Cl)ccc2OC1=O` returned an inhibition in assay [5] of 98%. For the same molecule, the inhibition entry with Escherichia coli [6] was “inactive”.
In [1], `O=C1Oc2ccc(Cl)cc2N/C1=C\C(=O)c1ccccc1Cl` returned a minimal inhibitory concentration (MIC) of 12.5 µg/mL (≈ 37.4 µM). In addition, in assay [2], the inhibition result is “inactive”. Further, the “growth inhibition (GI)” value in the assay with Escherichia coli [3] and in the assay on Staphylococcus aureus was “Active” each time.
`COC(=O)/C=C1\Nc2ccc(F)cc2OC1=O` had an IC50 in [4] of 30 µM. The molecule further registered a minimal inhibitory concentration (MIC) in assay [1] of 0.63 µg/mL (≈ 2.66 µM).
For `Cc1ccc2c(c1)N/C(=C\C(=O)CC(C)C)C(=O)O2`, the inhibition in assay [5] was found to be 77.3%. In the assay with Escherichia coli [6], the inhibition entry was “inactive”.
On to `COC(=O)/C=C1\Nc2ccccc2NC1=O`, for which the 50% inhibitory concentration (IC50) in [4] was greater than 122 µM. This molecule also showed a minimum inhibitory concentration (MIC) in assay [1] greater than 100 µg/mL. Also, the Activity with Mycobacterium avium is greater than 64 µg/mL.
With `O=C1Oc2ccc(F)cc2N/C1=C\C(=O)c1ccccc1Cl`, in assay [1], it took 3.13 µg/mL (≈ 9.85 µM) to inhibit growth (MIC). In addition, in assay [2], the inhibition result is “inactive”. Moreover, the “growth inhibition (GI)” value with Escherichia coli [3] and in the assay on Staphylococcus aureus was “Active” throughout.
Turning to `COC(=O)/C=C1\Nc2ccccc2OC1=O`, inhibition in assay [4] was half-maximal at 10 µM (IC50). In addition, the inhibition constant Ki was found to be 9.1 µM in assay [7] and 67 µM in assay [8]. The molecule also registered an MIC in assay [1] of 0.64 µg/mL (≈ 2.92 µM).
The matching figures for `COC(=O)/C=C1\Nc2cc(Cl)ccc2OC1=O`: 46.3 µM, 22.5 µM, 18.5 µM and 5 µg/mL (≈ 19.7 µM).
Molecule `COC(=O)/C=C1\Nc2ccc([N+](=O)[O-])cc2OC1=O` returned an IC50 in assay [4] of 20.3 µM. In [1], this molecule returned an MIC greater than 100 µg/mL.
For `COC(=O)/C=C1\Nc2ccc(Cl)cc2OC1=O`, the IC50 in [4] came out at 35.7 µM. The same molecule came in with an MIC in assay [1] of 0.63 µg/mL (≈ 2.48 µM).

One may read the MIC as the lowest concentration that inhibits growth of the organism. Lower therefore signals greater potency. For orientation: inhibition means the relative decrease from the control value, in per cent. As a reminder, the IC50 is the concentration that inhibits the measured activity by half. The Ki is the equilibrium dissociation constant of an inhibitor or competing ligand from its target.
